The values below are quoted from earlier work in patent publication US20170276692A1, “METHODS OF MONITORING FOR ADHERENCE TO BREXPIPRAZOLE (REXULTI®) THERAPY” (Ameritox, LLC, priority 2016, published 2017).

The conditions of series [1]: for predominant route of excretion: in vivo.
For series [2] the following is noted: brexpiprazole is the predominant species.

Take `O=c1ccc2ccc(OCCCCN3CCN(c4cccc5sccc45)CC3)cc2[nH]1` [Brexpiprazole]: the oral bioavailability (after oral administration) is listed as 95%. Besides, the “time to steady state serum concentrations” value (days of dosing) is 10 to 12 days. For the setting “in vivo”, the mean elimination half-life was 91 h. In addition, the “fraction of an oral dose excreted as unchanged brexpiprazole in feces” value in series [1] (oral dose, feces) was 14%. In addition, the “fraction of an oral dose excreted as unchanged brexpiprazole in urine” value in series [1] (oral dose, urine) is reported as “Less than 1%”.
As to `c1cc(N2CCNCC2)c2ccsc2c1` [SF034318], the “predominant route of excretion” value in series [1] is listed as “excreted predominantly in urine”.
As for `O=C(O)CCCOc1ccc2ccc(=O)[nH]c2c1` [OPC3952], the “metabolite level in plasma” value in series [2] is on record as 0-4%. Further, the “predominant route of excretion” value in series [1] is reported as “excreted predominantly in urine”.
